Data reported in the SangsterLogP compilation.

Assay: method code SF-HPLC, from DOI: 10.1002/jps.2600740210, PMID: 3989684
Details: pH 7.7

**Q.** For NS(=O)(=O)c1nc2ccc(Cl)cc2s1, which logD is on record?
**A.** 1.86

**Q.** Which logD does the source give for CCOc1ccc2nc(S(N)(=O)=O)sc2c1 here?
**A.** 1.91

**Q.** Which logD does the source give for NS(=O)(=O)c1nc2c(Cl)cc(Cl)cc2s1 here?
**A.** 2.3

**Q.** With CC(=O)Nc1ccc2nc(S(N)(=O)=O)sc2c1 as the molecule, how does the logD read?
**A.** 0.68

**Q.** For NS(=O)(=O)c1nc2ccc(O)cc2s1, which logD is on record?
**A.** 0.92

**Q.** Which logD does the source give for NS(=O)(=O)c1nc2ccc(OCCO)cc2s1 here?
**A.** 0.38

**Q.** With NS(=O)(=O)c1nc2ccc(OCc3ccccc3)cc2s1 as the molecule, how does the logD read?
**A.** 3.06

**Q.** Which logD does the source give for NS(=O)(=O)c1nc2ccccc2s1 here?
**A.** 1.19

**Q.** For Nc1ccc2nc(S(N)(=O)=O)sc2c1, which logD is on record?
**A.** 0.38

**Q.** For NS(=O)(=O)c1nc2ccc([N+](=O)[O-])cc2s1, which logD is on record?
**A.** 0.9
